Reference: patent publication US8293769B2, “CSF-1R inhibitors, compositions, and methods of use” (Novartis AG, priority 2008, dated 2012)

Key:
[1] = test system: MNFS60 (murine AML cells); assay: Cell viability assay in MCSF dependent MNFS60 cells (Cell Titer Glo); type: cell-based; conditions: Mus musculus; tested at about 1 μM; MCSF 10 ng/mL, 72 hrs; read-out: CPEC50 MNFS60MCSF percent inhibition
Experimental: Cell viability was assessed by Cell Titer Glo, Promega. MNFS60 (murine AML cells) were seeded in TC treated 96-well plates at a density of 5,000 cells per well in RPMI-1640, 10% FBS, and 1% Penicillin Streptomycin prior to addition of compound. Test compounds were serially diluted (3 fold) in DMSO to 500× the final concentration. For each concentration of test compound, 2 μl (500×) aliquots of compound or 100% DMSO (control) were diluted in 500 μl of culture medium that contained 2× final concentration of growth factor MCSF for 2× concentration and then diluted 1× on the cells. Final concentration of MCSF is 10 ng/mL. Cells were incubated for 72 hrs at 37° C., 5% CO2. After the incubation 100 μl Cell Titer Glo is added to each well to determine viable cells. The assay was performed according to the manufacturer's instruction (Promega Corporation, Madison, Wis. USA). Each experimental condition was performed in triplicate. Raw data was imported in Abase and EC50s calculated with XL-fit data analysis software: Relative light units of wells that contained cells without MCSF in the media and as a consequence didn't grow were defined as 100% inhibited.

PDGFRb = target: T1, PDGFRb (Homo sapiens, UniProt P09619); assay: PDGFRb kinase in vitro biochemical assay (alphascreen); conditions: tested at about 1 μM; read-out: PDGF RK BETA percent inhibition
T1 construct: The kinase domain of PDGFRβ was assayed in 50 mM Hepes; purchased Invitrogen P3082

[2] = target: T2, cytoplasmic domain of the human CSF-1R (Homo sapiens, UniProt P07333); assay: In vitro kinase assay for CSF-1R (AlphaScreen); type: biochemical; conditions: tested at about 1 μM; read-out: CSF1RK 1 percent inhibition
T2 construct: Recombinant protein corresponding to the cytoplasmic domain of the human CSF-1R; purchased Invitrogen Corporation, Carlsbad, Calif; PV3249
T2 sequence (P07333 539-972 limits assumed): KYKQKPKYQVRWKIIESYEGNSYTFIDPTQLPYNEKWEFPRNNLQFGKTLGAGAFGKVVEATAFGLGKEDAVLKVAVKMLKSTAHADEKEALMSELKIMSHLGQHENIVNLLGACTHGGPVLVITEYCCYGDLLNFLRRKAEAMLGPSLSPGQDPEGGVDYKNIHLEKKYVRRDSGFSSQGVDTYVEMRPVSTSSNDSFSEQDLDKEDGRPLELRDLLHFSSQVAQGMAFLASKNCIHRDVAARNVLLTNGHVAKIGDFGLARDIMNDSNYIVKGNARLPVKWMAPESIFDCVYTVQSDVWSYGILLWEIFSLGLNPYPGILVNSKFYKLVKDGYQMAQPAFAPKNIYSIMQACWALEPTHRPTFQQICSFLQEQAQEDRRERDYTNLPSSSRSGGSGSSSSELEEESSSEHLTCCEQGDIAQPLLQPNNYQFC
How it was run: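 Recombinant CSF-1R cytoplasmic domain (4 nM) phosphorylated biotinylated peptide (0.05 μM) at 1.0 μM ATP in HEPES with Mg2+/Mn2+, 2 h at room temperature, compounds from 25 μM in 3-fold steps. AlphaScreen anti-phosphotyrosine PT66 detection; IC50 by non-linear regression.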

[3] = target: T3, full-length human CSF-1R receptor (Homo sapiens, UniProt P07333); assay: In vitro inhibition of CSF-1R receptor tyrosine phosphorylation in transfected HEK293H cells; type: cell-based; conditions: HEK293-H, tested at about 1 μM, 50 ng/mL MCSF, read-out: PCSF1R percent inhibition
T3 construct: transfected with the full-length human CSF-1R receptor cloned in house; expressed in transfected cells; host or cells: HEK293H (Invitrogen Cat. #11631017)
Experimental: To test the inhibition of CSF-1R receptor tyrosine phosphorylation, HEK293H purchased from Invitrogen Cat. #11631017 cells transfected with the full-length human CSF-1R receptor cloned in house into mammalian episomal transfection vector were incubated for 1 h with serial dilutions of compounds starting at 10 μM with 3 fold dilutions and then stimulated for 8 min with 50 ng/mL MCSF. After the supernatant was removed, the cells were lysed on ice with lysis buffer (150 mM NaCl, 20 mM Tris, pH 7.5, 1 mM EDTA, 1 mM EGTA, 1% Triton X-100 and NaF, protease and phosphatase inhibitors) and then shaken for 15-20 min at 4° C. The lysate was then transferred to total CSF-1R antibody coated 96-well plates that had already been blocked with 3% Blocker A from Mesoscale discovery (MSD) for 2 hours and washed afterwards. Lysates were incubated overnight at 4° C. and the plates were then washed 4× with MSD Tris Wash Buffer. The SULFO-TAG anti-pTyr antibody from MSD was diluted to 20 nM final in 1% Blocker A (MSD) solution and added to the washed plates and incubated for 1.5-2 h before addition of read buffer (MSD). The plates were read on the Sector 6000 instrument (MSD). Raw data was imported in Abase and EC50s calculated with XL-fit data analysis software.

cKIT = target: T4, cKIT (Homo sapiens, UniProt P10721); assay: cKIT kinase in vitro biochemical assay (alphascreen); conditions: tested at about 1 μM; read-out: CKIT percent inhibition
T4 construct: The kinase domain of cKIT was assayed in 50 mM Hepes; purchased Upstate 14-559
T4 sequence (P10721 589-937 limits assumed): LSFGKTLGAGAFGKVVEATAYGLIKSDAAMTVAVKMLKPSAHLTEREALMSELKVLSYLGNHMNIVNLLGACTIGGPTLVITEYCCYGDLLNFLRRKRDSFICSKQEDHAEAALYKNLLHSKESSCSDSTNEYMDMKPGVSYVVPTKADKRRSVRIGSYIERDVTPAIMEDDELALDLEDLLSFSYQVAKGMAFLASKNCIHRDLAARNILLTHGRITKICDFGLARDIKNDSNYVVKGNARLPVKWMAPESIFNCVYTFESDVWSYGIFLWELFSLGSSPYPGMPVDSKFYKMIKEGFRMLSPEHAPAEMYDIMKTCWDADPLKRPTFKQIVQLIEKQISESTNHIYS

T3 sequence (P07333 20-972): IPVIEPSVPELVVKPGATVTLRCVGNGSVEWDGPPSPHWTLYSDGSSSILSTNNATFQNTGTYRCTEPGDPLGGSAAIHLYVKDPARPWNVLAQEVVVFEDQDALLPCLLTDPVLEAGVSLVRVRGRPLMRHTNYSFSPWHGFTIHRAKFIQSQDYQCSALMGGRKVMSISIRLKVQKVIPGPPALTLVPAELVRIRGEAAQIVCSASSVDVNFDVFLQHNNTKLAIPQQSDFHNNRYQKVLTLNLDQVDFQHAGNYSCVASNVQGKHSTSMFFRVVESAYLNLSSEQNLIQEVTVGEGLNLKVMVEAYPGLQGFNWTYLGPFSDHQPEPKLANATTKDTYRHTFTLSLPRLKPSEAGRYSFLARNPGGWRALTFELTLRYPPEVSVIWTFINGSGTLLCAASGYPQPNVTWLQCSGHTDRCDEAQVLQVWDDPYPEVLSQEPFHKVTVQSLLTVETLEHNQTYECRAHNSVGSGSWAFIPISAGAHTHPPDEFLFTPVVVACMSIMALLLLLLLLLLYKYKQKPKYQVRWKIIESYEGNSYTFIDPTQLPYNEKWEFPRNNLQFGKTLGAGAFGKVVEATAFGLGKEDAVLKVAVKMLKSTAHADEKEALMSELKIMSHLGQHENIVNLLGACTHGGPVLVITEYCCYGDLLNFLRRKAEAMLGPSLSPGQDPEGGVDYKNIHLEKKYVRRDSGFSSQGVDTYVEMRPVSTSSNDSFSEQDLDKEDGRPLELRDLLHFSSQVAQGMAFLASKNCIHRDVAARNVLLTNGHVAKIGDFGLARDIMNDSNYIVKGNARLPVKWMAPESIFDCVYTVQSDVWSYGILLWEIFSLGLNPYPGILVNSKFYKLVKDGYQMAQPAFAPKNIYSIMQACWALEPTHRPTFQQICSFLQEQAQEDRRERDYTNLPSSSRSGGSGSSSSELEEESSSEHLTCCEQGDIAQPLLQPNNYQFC
T1 sequence (P09619 600-962 limits assumed): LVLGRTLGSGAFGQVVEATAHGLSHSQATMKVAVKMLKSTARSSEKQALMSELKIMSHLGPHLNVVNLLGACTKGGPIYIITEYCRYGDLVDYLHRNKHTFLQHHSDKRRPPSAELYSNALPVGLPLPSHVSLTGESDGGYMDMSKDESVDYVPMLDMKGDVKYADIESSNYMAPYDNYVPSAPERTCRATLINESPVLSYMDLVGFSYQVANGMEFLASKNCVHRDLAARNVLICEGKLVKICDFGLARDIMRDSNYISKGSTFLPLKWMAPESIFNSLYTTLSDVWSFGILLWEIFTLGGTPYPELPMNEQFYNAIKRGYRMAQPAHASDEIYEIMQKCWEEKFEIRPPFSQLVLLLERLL

Work on O[C@@H]1CCCC[C@H]1Nc1nc2ccc(Oc3ccnc(-c4cccnc4)n3)cc2s1 [Compound 27, (1R,2R)-2-(6-(2-(pyridin-3-yl)pyrimidin-4-yloxy)benzo [d]thiazol-2-ylamino) cyclohexanol] yielded an inhibition at 1 µM [1] of 54%, an inhibition at 1 µM (PDGFRb) of 8% and an inhibition at 1 µM [2] of 100%. The inhibition at 1 µM [3] was 78% and the inhibition at 1 µM (cKIT) was 20%.
Work on Cn1nccc1-c1cncc(Oc2ccc3nc(N[C@@H]4CCCC[C@H]4O)sc3c2)c1 [Compound 56, (1R,2R)-2-(6-(5-(1-methyl-1H-pyrazol-5-yl)pyridin-3-yloxy)benzo[d]thiazol-2-ylamino)cyclohexanol] yielded an inhibition at 1 µM [1] of 93%, an inhibition at 1 µM (PDGFRb) of 10% and an inhibition at 1 µM [2] of 100%. It also gave an inhibition at 1 µM [3] of 96% and an inhibition at 1 µM (cKIT) of 43%.
Molecule O[C@@H]1CCCC[C@H]1Nc1nc2ccc(Oc3cncc(-c4ccc(F)cc4)c3)cc2s1 [Compound 64, (1R,2R)-2-(6-(5-(4-fluorophenyl)pyridin-3-yloxy)benzo [d]thiazol-2-ylamino) cyclohexanol] has an inhibition at 1 µM [1] of 100%, an inhibition at 1 µM (PDGFRb) of 8% and an inhibition at 1 µM [2] of 100%. The inhibition at 1 µM [3] was 95% and the inhibition at 1 µM (cKIT) was 54%.
For Cn1cc(-c2cncc(Oc3ccc4nc(N[C@@H]5CCCC[C@H]5O)sc4c3)n2)cn1 [Compound 93, (1R,2R)-2-(6-(6-(1-methyl-1H-pyrazol-4-yl)pyrazin-2-yloxy)benzo[d]thiazol-2-ylamino)cyclohexanol], the inhibition at 1 µM [1] was 82%, the inhibition at 1 µM (PDGFRb) was 22% and the inhibition at 1 µM [2] was 100%. It also gave an inhibition at 1 µM [3] of 95% and an inhibition at 1 µM (cKIT) of 18%.
For O[C@@H]1CCCC[C@H]1Nc1nc2ccc(Oc3ccnc(-c4ccncc4)n3)cc2s1 [Compound 28, (1R,2R)-2-(6-(2-(pyridin-4-yl)pyrimidin-4-yloxy)benzo [d]thiazol-2-ylamino) cyclohexanol], the inhibition at 1 µM [1] was 67%, the inhibition at 1 µM (PDGFRb) was 25% and the inhibition at 1 µM [2] was 100%. The inhibition at 1 µM [3] was 88% and the inhibition at 1 µM (cKIT) was 18%.
CCCn1cc(-c2cncc(Oc3ccc4nc(N[C@@H]5CCCC[C@H]5O)sc4c3)n2)cn1 [Compound 94, (1R,2R)-2-(6-(6-(1-propyl-1H-pyrazol-4-yl)pyrazin-2-yloxy)benzo[d]thiazol-2-ylamino)cyclohexanol] was tested, and the inhibition at 1 µM [1] was 80%, the inhibition at 1 µM (PDGFRb) was 9% and the inhibition at 1 µM [2] was 100%. It also gave an inhibition at 1 µM [3] of 95% and an inhibition at 1 µM (cKIT) of 13%.
For Cn1cncc1-c1cncc(Oc2ccc3nc(N[C@@H]4CCCC[C@H]4O)sc3c2)c1 [Compound 68, (1R,2R)-2-(6-(5-(1-methyl-1H-imidazol-5-yl)pyridin-3-yloxy)benzo[d]thiazol-2-ylamino) cyclohexanol], the inhibition at 1 µM [1] was 85%, the inhibition at 1 µM (PDGFRb) was 21% and the inhibition at 1 µM [2] was 100%. The inhibition at 1 µM [3] was 93% and the inhibition at 1 µM (cKIT) was 33%.
For Cn1cc(-c2cc(Oc3ccc4nc(NCC5CCCCC5)sc4c3)ncn2)cn1 [Compound 20, N-(cyclohexylmethyl)-6-(6-(1-methyl-1H-pyrazol-4-yl)pyrimidin-4-yloxy)benzo[d]thiazol-2-amine], the inhibition at 1 µM [1] was 96%, the inhibition at 1 µM (PDGFRb) was 82% and the inhibition at 1 µM [2] was 100%. It also gave an inhibition at 1 µM (cKIT) of 99%.
With C[C@H](Nc1nc2ccc(Oc3ccc(NO)nc3)cc2s1)C1CCCCC1 [Compound 101, (S)—N-(1-cyclohexylethyl)-6-(6-(hydroxyamino)pyridin-3-yloxy)benzo[d]thiazol-2-amine] the inhibition at 1 µM [1] was 58%, the inhibition at 1 µM (PDGFRb) was 31% and the inhibition at 1 µM [2] was 100%. For the same molecule, the inhibition at 1 µM (cKIT) was 74%.
Cn1cc(-c2nccc(Oc3ccc4nc(N[C@@H]5CCCC[C@H]5O)sc4c3)n2)cn1 [Compound 23, (1R,2R)-2-(6-(2-(1-methyl-1H-pyrazol-4-yl)pyrimidin-4-yloxy)benzo[d]thiazol-2-ylamino) cyclohexanol] gave an inhibition at 1 µM [1] of 100%, an inhibition at 1 µM (PDGFRb) of 7% and an inhibition at 1 µM [2] of 100%. It also gave an inhibition at 1 µM (cKIT) of 19%.
CCN(CC)CCn1cc(-c2cncc(Oc3ccc4nc(N[C@@H]5CCCC[C@H]5O)sc4c3)c2)cn1 [Compound 81, (1R,2R)-2-(6-(5-(1-(2-(diethylamino)ethyl)-1H-pyrazol-4-yl)pyridin-3-yloxy)benzo[d]thiazol-2-ylamino)cyclohexanol] showed an inhibition at 1 µM [1] of 100%, an inhibition at 1 µM (PDGFRb) of 0% and an inhibition at 1 µM [2] of 100%. It also gave an inhibition at 1 µM (cKIT) of 56%.
For O[C@@H]1CCCC[C@H]1Nc1nc2ccc(Oc3cncc(-c4cnn(CCN5CCOCC5)c4)n3)cc2s1 [Compound 95, (1R,2R)-2-(6-(6-(1-(2-morpholinoethyl)-1H-pyrazol-4-yl)pyrazin-2-yloxy)benzo[d]thiazol-2-ylamino)cyclohexanol], the inhibition at 1 µM [1] was 47%, the inhibition at 1 µM (PDGFRb) was 8% and the inhibition at 1 µM [2] was 100%. For the same molecule, the inhibition at 1 µM (cKIT) was 18%.
With Cn1cc(-c2nccc(Oc3ccc4nc(NCC5CCCCC5)sc4c3)n2)cn1 [Compound 21, N-(cyclohexylmethyl)-6-(2-(1-methyl-1H-pyrazol-4-yl)pyrimidin-4-yloxy) benzo[d]thiazol-2-amine] the inhibition at 1 µM [1] was 100%, the inhibition at 1 µM (PDGFRb) was 92% and the inhibition at 1 µM [2] was 100%. The inhibition at 1 µM (cKIT) was 100%.
For O[C@@H]1CCCC[C@H]1Nc1nc2ccc(Oc3ncnc4ccccc34)cc2s1 [Compound 18, (1R,2R)-2-(6-(quinazolin-4-yloxy)benzo[d]thiazol-2-ylamino)cyclohexanol], the inhibition at 1 µM [1] was 38%, the inhibition at 1 µM (PDGFRb) was 11% and the inhibition at 1 µM [2] was 100%. For the same molecule, the inhibition at 1 µM (cKIT) was 22%.
For O[C@@H]1CCCC[C@H]1Nc1nc2ccc(Oc3cncc(C4=CCNCC4)c3)cc2s1 [Compound 85, (1R,2R)-2-(6-(5-(1,2,3,6-tetrahydropyridin-4-yl)pyridin-3-yloxy)benzo[d]thiazol-2-ylamino)cyclohexanol], the inhibition at 1 µM [1] was 13%, the inhibition at 1 µM (PDGFRb) was 2% and the inhibition at 1 µM [2] was 96%. It also gave an inhibition at 1 µM (cKIT) of 13%.
Molecule CN(C)c1ncc(-c2cncc(Oc3ccc4nc(N[C@@H]5CCCC[C@H]5O)sc4c3)c2)cn1 [Compound 76, (1R,2R)-2-(6-(5-(2-(dimethylamino)pyrimidin-5-yl)pyridin-3-yloxy)benzo [d]thiazol-2-ylamino) cyclohexanol] has an inhibition at 1 µM [1] of 54%, an inhibition at 1 µM (PDGFRb) of 0% and an inhibition at 1 µM [2] of 100%. It also gave an inhibition at 1 µM (cKIT) of 24%.
Molecule CNC(=O)c1ccc(Oc2ccc3nc(NCC4CCCCC4)sc3c2)cn1 [Compound 48, 5-(2-(cyclohexylmethylamino)benzo [d]thiazol-6-yloxy)-N-methylpicolinamide] has an inhibition at 1 µM [1] of 0%, an inhibition at 1 µM (PDGFRb) of 8% and an inhibition at 1 µM [2] of 96%. For the same molecule, the inhibition at 1 µM (cKIT) was 22%.
With CNc1cc(Oc2ccc3nc(NCC4CCCCC4)sc3c2)ncn1 [Compound 13, N-(cyclohexylmethyl)-6-(6-(methylamino)pyrimidin-4-yloxy)benzo[d]thiazol-2-amine] the inhibition at 1 µM [1] was 18%, the inhibition at 1 µM (PDGFRb) was 30% and the inhibition at 1 µM [2] was 98%. For the same molecule, the inhibition at 1 µM (cKIT) was 42%.
